Entries after “also recorded” stand apart in the source; their conditions may differ.
Assays:
[1] = system: pancreatic cancer cell lines (PANC-1, CFPAC-1, CAPAN-1, MIAPaCa-2, BXPC-3); assay: Sulforhodamine B (SRB) cytotoxicity assay on pancreatic cancer cell lines; type: cell-based, human; details: increasing concentration, 72 h
Experimental: PANC-1, CFPAC-1, CAPAN-1, MIAPaCa-2, BXPC-3 and fibroblast cells were seeded for 24 h and were exposed to increasing concentration of Pimozide and vehicle for 72 h (FIG. 3A). The same procedure was followed for treatment of cancer cell lines with L741 (FIG. 3B). Cell viability was characterized using a SRB assay. Values are the mean+/−SD of six independent experiments.
Five pancreatic ductal cancer cell lines with various degree of differentiation were obtained from American Type Culture Collection (Rockville, USA) and Normal Human Dermal Fibroblasts (NHDF) obtained from PromoCell. BXPC-3 (moderately differentiated) as well as poorly differentiated human pancreatic cancer cell lines, PANC-1 and MIAPaCa-2, have been established from primary tumor. AsPC-1, CAPAN-1 and CFPAC-1 which represent well differentiated cell lines was isolated from ascites and liver metastasis of pancreas adenocarcinoma. All cell lines contain mutation in P53 whereas K-ras mutation reported in all with the exception of BxPc3. BRCA2 mutation just reported in CAPAN-1 cells.
Sulforhodamine B sodium salt (sigma) was used to assess cell viability and IC50 determination of pancreatic cancer cells. […] Cell viability was specified by using plate reader (TECAN) with measuring of absorbance at 570 and 650 nm (background) in treated or untreated 96 well plate.

MIAPaCa-2 xenograft = assay: Combination therapy in NSG mice, MIAPaCa-2 xenograft model; type: in vivo; details: i.p. 16 days; pimozide 10 mg/kg daily; gemcitabine 20 mg/kg every 4 days
Source text: Tumor volumes normalized to initial measurement shown in the y-axis every four days following treatment with either vehicle (gray line), the chemotherapeutic gemcitabine (green line), a combination therapy of 2-deoxy-D-glucose, atorvastatin and pimozide (2DG+ATR+Pim, redline), or a combination therapy of 2DG+ATR+Pim and gemcitabine (2DG+ATR+Pim+Gem, red dashed line) (FIG. 12A). […] Tumor weight (FIG. 12C) and volume of samples (FIG. 12D) harvested following treatment with, from left to right, control (Vehicle), 2DG+ATR, Pim alone, Pim+2DG+ATR, Gem alone, 2DG+ATR+Gem, Pim+Gem, or Pim+2DG+ATR+Gem.
NOD severe combined immunodeficiency gamma (NSG) mice were subcutaneously injected in the right flank with five million MIAPaCa-2 cells. Once tumors were detectable (200 mm^3), mice were randomized into 8 groups (5 in each group) and treated through intraperitoneal injection as indicated for 16 days. All drugs were given every day whereas gemcitabine was given every 4 days, alone or in combination. Experiment was terminated when control animals became moribund. The growth of tumors was measured every 4 days. Tumors were harvested and photographed. Tumor weights and volumes were measured.
The efficacy of the combined treatment approach was investigated using a MIAPaCa-2 xenograft model of pancreatic cancer.

[2] = system: MIAPaCa-2, PANC-1 and AsPC-1 cells; assay: Glucose uptake measurement (labelled 2-DG) in PDAC cell lines; type: cell-based, human; details: all three cell lines; relative to DMSO control
Source text: Measurement of 2-deoxy-D-glucose uptake shown on the y-axis relative to control by PDAC cell lines (MIAPaCa2, left; PANC-1, middle; AsPC1, right) treated with DMSO (C), pimozide (P) or haloperidol (H) (FIG. 10A). Abundance of free cholesterol, as measured by staining with filipin, after treatment with haloperidol (H) or pimozide (P) in PDAC cell lines (MIAPaCa2, left; PANC-1, middle; AsPC1, right) (FIG. 10B top). Representative micrographs of filipin-labelled cholesterol. PDAC (MIAPaCa2, top; PANC-1, middle; AsPC1, bottom) cells were seeded for 24 hours and treated with 10 μM haloperidol (H) or pimozide (P) or DMSO for 18 hours (FIG. 10B bottom). Red-fluorescence represents propidium iodide (PI)-stained nuclei and blue-fluorescence represents filipin-stained cholesterol. mRNA levels of genes relative to R-actin shown on the y-axis involved in cholesterol biosynthesis (from left to right: SREBP1, SREBP2, INSIG1, HMGCR, LDLR) measured by qRT-PCR 18 hours post-treatment with DMSO (C), haloperidol (H) or pimozide (P) in three PDAC cell lines (MIAPaCa2, top; PANC-1, middle; AsPC1, bottom) (FIG. 10C).
The induction effect of pimozide or haloperidol on labeled 2-DG uptake in cancer cells were determined from measurement of the fluorescence intensity of cell lysates. […]

PANC-1 cells = assay: Wound healing (scratching) assay for cell migration; type: cell-based, human; details: PANC-1, increasing concentrations, 10 h
Experimental: PANC-1 cells were plated in the chamber were already attached in 12 well plate and allowed to grow for 24 h. Then, a wound was made in the confluent monolayer by removing the chamber. Cells were exposed to increasing concentration of Pimozide (FIG. 6A) or L741 (FIG. 6B) and vehicle for 10 h. Wound gap closure was measured for each drug concentration by comparing the gap at time 0 h to the one at the time 10 h when the gap closed in negative control and normalized to untreated condition.
PANC-1 cells were seeded into the 35 mm-dish culture-silicon Insert frames from Ibidi where already attached to the 6 well culture plate. When 96-98% confluency was achieved, the insert frames were removed using sterile forceps to reach cell free gap. To create a reference point for subsequent measurements, three different part of the gap was marked on the underside of the plastic. Floating cells and cell debris were washed using PBS, relative culture medium was added to each wells and migration distance was photographed using a Zeiss Axiovert 24 light microscope at zero time in the marked areas. Afterward, the wells were treated by addition of DMSO as control and different increasing concentration of Pim and L741. Plates were then placed into the incubator and the cells were allowed to migrate until the time when the gap for the […] closed (t time). Images were taken from the marked areas again. This assay was performed employing various concentrations of drugs at which maximum 5% viability inhibition was observed after 10 h treatment.

## O=c1[nH]c2ccccc2n1C1CCN(CCCC(c2ccc(F)cc2)c2ccc(F)cc2)CC1 [pimozide]
[1]
  cell viability of pancreatic cancer cell lines: Potent toxicity effect; also recorded: dose dependent toxicity effect
MIAPaCa-2 xenograft
  tumor volume: reduced tumor weight and volume
  tumor weight: reduced tumor weight
[2]
  glucose uptake (intracellular labelled 2-deoxy-D-glucose): elevated uptake of glucose; also recorded: enhanced glucose and cholesterol uptake
PANC-1 cells
  tumor cell migration (wound gap closure): tumor cell migration was affected
PANC-1 cells; listed as Pimozide
  tumor cell migration (wound gap closure): dose dependent inhibitory effect
